Experimental data reported in US20210355107A1, “MULTI-SUBSTITUTED PYRIDONE DERIVATIVES AND MEDICAL USE THEREOF” (Beijing Yuezhikangtai Biomedicines Co., Ltd., priority 2018, published 2021).

Assays:
[1] = molecular target: T1, kinase Axl (Homo sapiens, UniProt P30530); experiment: Mobility shift assay, inhibitory activity against kinase Axl; format: biochemical; settings: ATP at Km (81 μM), average of two independent experiments
T1 construct: purchased Carna 08-107
T1 sequence (P30530 473-894 limits assumed): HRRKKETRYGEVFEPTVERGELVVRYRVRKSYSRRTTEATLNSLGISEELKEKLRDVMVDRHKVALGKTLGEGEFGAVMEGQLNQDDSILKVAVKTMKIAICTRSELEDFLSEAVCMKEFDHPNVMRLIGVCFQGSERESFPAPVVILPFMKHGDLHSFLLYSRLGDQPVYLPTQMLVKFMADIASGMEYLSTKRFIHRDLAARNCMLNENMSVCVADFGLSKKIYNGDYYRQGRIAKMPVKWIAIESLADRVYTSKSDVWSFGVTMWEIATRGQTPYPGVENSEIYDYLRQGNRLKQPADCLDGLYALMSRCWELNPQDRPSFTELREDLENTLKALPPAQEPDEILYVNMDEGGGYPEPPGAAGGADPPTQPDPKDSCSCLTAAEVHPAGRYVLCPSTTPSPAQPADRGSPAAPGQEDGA
Method: (§1) In this test, mobility shift assay was used to test the inhibitory activity of compounds when ATP concentrations correspond to the Km of the kinases.
(§2) The concentration of test compound was 10-fold diluted from an initial concentration of 10 μM. The test result (IC50) was the average of two independent experiments.
(§3) For example, a compound at an initial concentration of 10 μM was adjusted to 500 μM with 100% DMSO, then serially diluted for 10 concentrations, and then subjected to 10-fold dilution with the buffer to prepare a diluted compound intermediate containing 10% DMSO, 5 μL of which was transferred to the 384-well plate.
(§4) 10 μL of the two enzyme solutions each was added to the 384-well plate and co-incubated with the compound for 10-15 min at room temperature.
(§5) 10 μL of the diluted substrate was added to the 384-well plate to initiate the reaction, which lasts for 1 h at 28° C.
(§6) 5) The conversion rate was read by Caliper Reader (Perkin Elmer) and the inhibition rate was calculated as the average of two tests.
(§7) 6) IC50 values were fitted with XL-fit software.

[2] = molecular target: T2, kinase c-MET (Homo sapiens, UniProt P08581); experiment: Mobility shift assay, inhibitory activity against kinase c-MET; format: biochemical; settings: ATP at Km (35 μM), average of two independent experiments
T2 construct: purchased Carna 08-151
T2 sequence (P08581 956-1390 limits assumed): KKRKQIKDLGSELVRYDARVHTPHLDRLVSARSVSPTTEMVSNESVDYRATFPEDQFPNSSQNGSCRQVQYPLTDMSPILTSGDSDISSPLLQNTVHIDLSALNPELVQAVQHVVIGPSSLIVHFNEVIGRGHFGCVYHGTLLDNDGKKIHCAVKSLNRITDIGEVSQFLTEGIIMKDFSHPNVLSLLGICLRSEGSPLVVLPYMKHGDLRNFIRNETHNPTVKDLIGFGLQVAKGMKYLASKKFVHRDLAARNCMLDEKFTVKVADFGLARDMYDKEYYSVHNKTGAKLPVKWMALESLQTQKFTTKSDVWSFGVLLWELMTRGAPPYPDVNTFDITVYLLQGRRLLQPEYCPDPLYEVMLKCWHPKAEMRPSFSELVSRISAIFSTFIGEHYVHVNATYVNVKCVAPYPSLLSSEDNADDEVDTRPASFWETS
Method: as §1, §2, §3, §4, §5, §6, §7

[3] = test system: EBC-1 cells; experiment: EBC-1 cell proliferation, CellTiter-Glo Luminescent Cell Viability Assay; format: cell-based; settings: Homo sapiens, 72 h incubation, read-out: IC50 (nM) against EBC-1 cells
Method: Test Example 3: Inhibitory Activity of Compounds disclosed herein against EBC-1 Cells
Test method: the inhibitory activity of the compounds against EBC-1 cell proliferation was evaluated using CellTiter-Glo® Luminescent Cell Viability Assay Kit (Promega).
Test procedures: when thawing EBC-1 cells, the cell cryopreservation tube was shaken rapidly in a water bath at 37° C. to thaw the cells in 1 min. The cell suspension after thawing was mixed with RPMI1640 culture medium containing 10% FBS and centrifuged for 5 min at 1000 rpm, and the supernatant was discarded. The cell pellet was suspended in 5 mL of complete culture medium. The suspension was placed in a cell culture flask with a bottom area of 25 cm^2, and cultured in a cell incubator at 37° C./95% humidity/5% CO2. Cell passage was performed when cell confluence reached about 80%. When the cells were passaged, the original cell suspension was directly made uniform by pipetting. 1/6 of the cell suspension was kept, added with 5 mL of new complete culture medium and then made uniform by pipetting. The cell culture flask was then placed in a cell incubator for further culturing. Cell plating was performed when the cell confluence reached about 80% again. With reference to the method for cell passage, 1/6 cell suspension was kept for further culturing when the cells were plated, and the remaining 5/6 of cell suspension was placed in a 15 mL centrifuge tube. Cell viability was detected by trypan blue exclusion using an IC1000 cell counter (Countstar) to ensure that cell viability was above 90%. Cell suspension at a density of 3.33×10^4 viable cells/mL was prepared using complete culture medium, and 90 μL of the cell suspension was added into 96-well cell culture plates, so that the cell density in the cell culture plates (day 0 plate and test compound plate) was 3000 viable cells/well. A control group that contains no cell or compound but only complete culture medium and a control group that contains no compound but cells were set. The cell plates were incubated overnight in a cell incubator. […] 10 μL of the above solution was added into a corresponding cell culture plate to ensure that the initial concentration of the compound was 10 μM, the dilution factor of adjacent concentration was 3.16, and the DMSO content in the cell culture plate was 0.1%. The cell plates were then incubated in the cell incubator for 72 h. During detection, CellTiter-Glo reagent (namely CellTiter-Glo® […] cell viability test reagent, Promega, Cat. No. G7572, Lot. No. 0000310975) was melted, and the cell plate was equilibrated at room temperature for 30 min. The cell plate was added with the CellTiter-Glo reagent at 100 μL per well, and then shaken on a QB-9001 microporous quick shaker (Kylin-Bell) for 5 min to fully lyse the cells. The cell plate was left to stand at room temperature for 20 min to stabilize luminescence signals, and the luminescence value of each well was scanned by a Spectramax M3 multi-functional microplate reader (Molecular Devices) at full wavelength.
Test samples: example compounds of the present invention and cabozantinib (positive control compound).
Data analysis: cell viability was calculated for compounds at various concentrations using the following formula:
Cell viability(%)=(Lumtest compound−Lumculture solution control)/(Lumcell control−Lumculture solution control)×100%,
where Lum refers to the luminescence value of each well of the test compound plate read by the multi-functional microplate reader.
The data were analyzed using GraphPad Prism 7.0 software, fitted with nonlinear S-curve regression to give dose-response curves, and IC50 values were calculated therefrom.

IC50 [1] [nM] | IC50 [2] [nM] | SMILES | IC50 [3] [nM]
2.6 | 38 | CC(C)n1cc(C(=O)Nc2ccc(-c3cc(-c4cnn(C5CCOCC5)c4)cnc3N)c(F)c2)c(=O)c(-c2ccc(F)cc2)c1C#N [Example 5, N-(4-(2-amino-5-(1-(tetrahydro-2H-pyran-4-yl)-1H-pyrazol-4-yl)-pyridin-3-yl)-3-fluorophenyl)-6-cyano-5-(4-fluorophenyl)-1-isopropyl-4-oxo-1,4-dihydro-pyridine-3-carboxamide] | –
3.9 | 30 | COc1cc2nccc(Oc3ccc(NC(=O)c4cc(Br)c(O)n(-c5ccc(F)cc5)c4=O)cc3F)c2cc1OC [Example 29B, 5-bromo-N-(4-((6,7-dimethoxyquinolin-4-yl)oxy)-3-fluorophenyl)-1-(4-fluorophenyl)-6-hydroxy-2-oxo-1,2-dihydropyridine-3-carboxamide] | –
5.9 | – | COc1cc2nccc(Oc3ccc(NC(=O)c4cn(C5CC5)c(C#N)c(-c5ccc(F)cc5)c4=O)cc3F)c2cc1OC [Example 22, 6-cyano-N-(4-((6,7-dimethoxyquinolin-4-yl)oxy)-3-fluoro-phenyl)-5-(4-fluorophenyl)-1-cyclopropyl-4-oxo-1,4-dihydropyridine-3-carboxamide] | 84
3.1 | – | COc1cc2nccc(Oc3ccc(NC(=O)c4cc(C)c(C#N)n(-c5ccc(F)cc5)c4=O)cc3F)c2cc1OC [Example 29A, 6-cyano-N-(4-((6,7-dimethoxyquinolin-4-yl)oxy)-3-fluoro-phenyl)-1-(4-fluorophenyl)-5-methyl-2-oxo-1,2-dihydropyridine-3-carboxamide] | 82.7
9.8 | 143 | N#Cc1c(C2CC2)cc(C(=O)Nc2ccc(-c3cc(-c4cnn(C5CCOCC5)c4)cnc3N)c(F)c2)c(=O)n1-c1ccc(F)cc1 [Example 16, N-(4-(2-amino-5-(1-(tetrahydro-2H-pyran-4-yl)-1H-pyrazol-4-yl)pyridin-3-yl)-3-fluorophenyl)-6-cyano-5-cyclopropyl-1-(4-fluorophenyl)-2-oxo-1,2-dihydro-pyridine-3-carboxamide] | –
6.6 | 20 | Cn1cc(-c2cnc(N)c(-c3ccc(NC(=O)c4cc(C5CC5)c(C#N)n(-c5ccc(F)cc5)c4=O)cc3F)c2)cn1 [Example 15, N-(4-(2-amino-5-(1-methyl-1H-pyrazol-4-yl)pyridin-3-yl)-3-fluorophenyl)-6-cyano-5-cyclopropyl-1-(4-fluorophenyl)-2-oxo-1,2-dihydropyridine-3-carboxamide] | 190
1.8 | 23 | C=C(C)c1cc(C(=O)Nc2ccc(-c3cc(-c4cnn(C5CCNCC5)c4)cnc3N)c(F)c2)c(=O)n(-c2ccc(F)cc2)c1C#N [Example 17, N-(4-(2-amino-5-(1-(piperidin-4-yl)-1H-pyrazol-4-yl)pyridin-3-yl)-3-fluorophenyl)-6-cyano-1-(4-fluorophenyl)-2-oxo-5-(prop-1-en-2-yl)-1,2-dihydropyridine-3-carboxamide] | –
1.1 | 17 | N#Cc1c(-c2ccc(F)cc2)c(=O)c(C(=O)Nc2ccc(-c3cc(-c4cnn(C5CCNCC5)c4)cnc3N)c(F)c2)cn1C1CCC1 [Example 8, N-(4-(2-amino-5-(1-(piperidin-4-yl)-1H-pyrazol-4-yl)pyridin-3-yl)-3-fluorophenyl)-6-cyano-5-(4-fluorophenyl)-1-cyclobutyl-4-oxo-1,4-dihydropyridine-3-carboxamide] | –
– | – | COc1cc2nccc(Oc3ccc(NC(=O)c4cn(C5CCC5)c(C#N)c(-c5ccc(F)cc5)c4=O)cc3F)c2cc1OC [Example 23, 6-cyano-N-(4-((6,7-dimethoxyquinolin-4-yl)oxy)-3-fluoro-phenyl)-5-(4-fluorophenyl)-1-cyclobutyl-4-oxo-1,4-dihydropyridine-3-carboxamide] | 74
0.95 | 10 | N#Cc1c(-c2ccc(F)cc2)c(=O)c(C(=O)Nc2ccc(-c3cc(-c4cnn(C5CCNCC5)c4)cnc3N)c(F)c2)cn1C1CC1 [Example 11, N-(4-(2-amino-5-(1-(piperidin-4-yl)-1H-pyrazol-4-yl)pyridin-3-yl)-3-fluorophenyl)-6-cyano-5-(4-fluorophenyl)-1-cyclopropyl-4-oxo-1,4-dihydropyridine-3-carboxamide] | 91
1 | 21 | COCc1c(C)cc(C(=O)Nc2ccc(Oc3ccnc4cc(OC)c(OC)cc34)c(F)c2)c(=O)n1-c1ccc(F)cc1 [Example 28, 5-methyl-N-(4-((6,7-dimethoxyquinolin-4-yl)oxy)-3-fluoro-phenyl)-1-(4-fluorophenyl)-6-(methoxymethyl)-2-oxo-1,2-dihydropyridine-3-carboxamide] | –
– | – | COc1cc2nccc(Oc3ccc(NC(=O)C4(C(=O)Nc5ccc(F)cc5)CC4)cc3)c2cc1OC [Cabozantinib, cabozantinib, reference compound] | 37
5.5 | 14 | CC(C)n1cc(C(=O)Nc2ccc(-c3cc(-c4cnn(C5CCNCC5)c4)cnc3N)c(F)c2)c(=O)n(-c2ccc(F)cc2)c1=O [Example 20, N-(4-(2-amino-5-(1-(piperidin-4-yl)-1H-pyrazol-4-yl)pyridin-3-yl)-3-fluorophenyl)-3-(4-fluorophenyl)-1-isopropyl-2,4-dioxo-1,2,3,4-tetrahydropyrimidine-5-carboxamide] | 106
2.1 | 23 | N#Cc1c(C2CC2)cc(C(=O)Nc2ccc(-c3cc(-c4cnn(C5CCNCC5)c4)cnc3N)c(F)c2)c(=O)n1-c1ccc(F)cc1 [Example 12, N-(4-(2-amino-5-(1-(piperidin-4-yl)-1H-pyrazol-4-yl)pyridin-3-yl)-3-fluorophenyl)-6-cyano-5-cyclopropyl-1-(4-fluorophenyl)-2-oxo-1,2-dihydropyridine-3-carboxamide] | 98
12 | 82 | CCn1cc(-c2cnc(N)c(-c3ccc(NC(=O)c4cc(C5CC5)c(C#N)n(-c5ccc(F)cc5)c4=O)cc3F)c2)cn1 [Example 14, N-(4-(2-amino-5-(1-ethyl-1H-pyrazol-4-yl)pyridin-3-yl)-3-fluorophenyl)-6-cyano-5-cyclopropyl-1-(4-fluorophenyl)-2-oxo-1,2-dihydropyridine-3-carboxamide] | –
– | – | COc1cc2nccc(Oc3ccc(NC(=O)c4cn(C(C)C)c(C#N)c(-c5ccc(F)cc5)c4=O)cc3F)c2cc1C#N [Example 25, 6-cyano-N-(4-((6-cyano-7-methoxyquinolin-4-yl)oxy)-3-fluoro-phenyl)-5-(4-fluorophenyl)-1-isopropyl-4-oxo-1,4-dihydropyridine-3-carboxamide] | 115
